Test results as given in ChEMBL document CHEMBL1909046, “DrugMatrix in vitro pharmacology data”.

Experiments:
[1] = DRUGMATRIX: Sodium/nucleoside co-transporter radioligand binding (ligand: nitrobenzylthioinosine); type: cell membranes, Cavia porcellus, Dunkin-Hartley, Cerebral cortex, Membrane; details: Not Active = under 50% inhibition at 10 µM
[2] = biological target: Beta-3 adrenergic receptor (Homo sapiens, UniProt P13945); assay: DRUGMATRIX: Adrenergic beta3 radioligand binding (ligand: [125I] Cyanopindolol); type: cell membranes, HEK293, Membrane; details: hek293; Not Active = under 50% inhibition at 10 µM
Beta-3 adrenergic receptor, sequence (P13945 whole entry): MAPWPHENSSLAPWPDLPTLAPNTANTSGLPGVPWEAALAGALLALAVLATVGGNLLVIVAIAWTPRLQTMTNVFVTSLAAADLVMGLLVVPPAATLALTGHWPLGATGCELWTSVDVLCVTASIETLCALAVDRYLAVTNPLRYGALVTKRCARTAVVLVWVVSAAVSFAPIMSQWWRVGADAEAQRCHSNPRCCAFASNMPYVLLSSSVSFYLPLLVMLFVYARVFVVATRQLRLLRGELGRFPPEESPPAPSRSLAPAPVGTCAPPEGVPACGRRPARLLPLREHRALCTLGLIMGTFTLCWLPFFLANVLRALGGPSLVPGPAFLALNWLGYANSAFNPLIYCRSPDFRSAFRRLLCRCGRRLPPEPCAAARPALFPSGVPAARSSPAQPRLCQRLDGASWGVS

[3] = biological target: Sodium-dependent noradrenaline transporter (Homo sapiens, UniProt P23975); assay: DRUGMATRIX: Norepinephrine Transporter radioligand binding (ligand: [125I] RTI-55); type: cell membranes, MDCK, Membrane; details: mdck; Not Active = under 50% inhibition at 10 µM
Sodium-dependent noradrenaline transporter, sequence (P23975 whole entry): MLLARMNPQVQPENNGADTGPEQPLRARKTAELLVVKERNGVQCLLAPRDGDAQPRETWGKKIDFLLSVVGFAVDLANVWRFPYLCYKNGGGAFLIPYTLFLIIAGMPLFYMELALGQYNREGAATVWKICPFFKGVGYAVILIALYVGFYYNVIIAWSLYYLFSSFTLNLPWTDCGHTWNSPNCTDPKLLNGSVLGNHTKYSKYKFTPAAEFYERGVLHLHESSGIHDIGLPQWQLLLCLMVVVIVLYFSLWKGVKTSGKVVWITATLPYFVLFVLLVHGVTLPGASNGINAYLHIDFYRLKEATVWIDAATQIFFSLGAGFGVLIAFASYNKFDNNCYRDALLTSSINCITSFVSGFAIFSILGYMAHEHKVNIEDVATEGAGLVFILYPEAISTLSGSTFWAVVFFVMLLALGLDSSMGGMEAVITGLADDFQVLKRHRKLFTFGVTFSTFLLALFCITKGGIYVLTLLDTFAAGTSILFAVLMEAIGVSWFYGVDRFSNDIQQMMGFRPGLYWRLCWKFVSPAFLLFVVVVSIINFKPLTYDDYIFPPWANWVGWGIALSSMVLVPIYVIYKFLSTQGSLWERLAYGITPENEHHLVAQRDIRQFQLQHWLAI

[4] = DRUGMATRIX: beta-Lactamase enzyme inhibition (substrate: Nitrocefin); set-up: species or system Bacillus cereus; details: Not Active = under 50% inhibition at 10 µM
[5] = biological target: 5-hydroxytryptamine receptor 2B (Homo sapiens, UniProt P41595); type: cell membranes, CHO-K1, Membrane; details: cho-k1; note: in other assays of this panel Not Active means under 50% inhibition at 10 µM
5-hydroxytryptamine receptor 2B, sequence (P41595 whole entry): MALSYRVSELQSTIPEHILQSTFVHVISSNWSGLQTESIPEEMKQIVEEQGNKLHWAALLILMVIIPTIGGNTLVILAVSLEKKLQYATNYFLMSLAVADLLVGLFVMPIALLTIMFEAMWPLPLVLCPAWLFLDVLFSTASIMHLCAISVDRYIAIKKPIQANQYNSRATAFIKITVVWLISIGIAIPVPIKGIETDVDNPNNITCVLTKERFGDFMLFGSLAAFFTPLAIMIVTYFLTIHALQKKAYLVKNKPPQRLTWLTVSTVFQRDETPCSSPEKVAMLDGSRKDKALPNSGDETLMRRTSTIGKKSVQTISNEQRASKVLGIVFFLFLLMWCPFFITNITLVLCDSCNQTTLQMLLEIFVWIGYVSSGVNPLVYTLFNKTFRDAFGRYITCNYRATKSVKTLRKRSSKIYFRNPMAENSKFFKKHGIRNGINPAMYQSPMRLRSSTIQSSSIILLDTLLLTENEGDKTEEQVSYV

[6] = biological target: 5-hydroxytryptamine receptor 6 (Homo sapiens, UniProt P50406); type: cell membranes, HeLa, Membrane; details: hela; note: in other assays of this panel Not Active means under 50% inhibition at 10 µM
5-hydroxytryptamine receptor 6, sequence (P50406 whole entry): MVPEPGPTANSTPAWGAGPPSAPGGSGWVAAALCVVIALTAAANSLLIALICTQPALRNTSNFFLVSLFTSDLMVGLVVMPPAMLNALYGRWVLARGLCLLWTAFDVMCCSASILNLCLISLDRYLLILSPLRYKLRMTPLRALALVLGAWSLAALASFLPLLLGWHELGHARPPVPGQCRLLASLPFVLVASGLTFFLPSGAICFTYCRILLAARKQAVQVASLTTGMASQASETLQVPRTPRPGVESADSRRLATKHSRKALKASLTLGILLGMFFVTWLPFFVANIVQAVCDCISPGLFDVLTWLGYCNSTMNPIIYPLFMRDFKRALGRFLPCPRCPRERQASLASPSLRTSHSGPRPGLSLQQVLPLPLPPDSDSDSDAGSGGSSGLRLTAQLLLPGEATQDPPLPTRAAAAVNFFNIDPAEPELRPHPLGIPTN

Thromboxane-A synthase = biological target: T1, Thromboxane-A synthase (Homo sapiens, UniProt P24557); assay: biochemical; type: tissue-based, Platelet; details: platelet;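 note: enzyme inhibition assay with PGH2 supplied as substrate; in other assays of this panel Not Active means under 50% inhibition at 10 µM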
T1 sequence (P24557 whole entry): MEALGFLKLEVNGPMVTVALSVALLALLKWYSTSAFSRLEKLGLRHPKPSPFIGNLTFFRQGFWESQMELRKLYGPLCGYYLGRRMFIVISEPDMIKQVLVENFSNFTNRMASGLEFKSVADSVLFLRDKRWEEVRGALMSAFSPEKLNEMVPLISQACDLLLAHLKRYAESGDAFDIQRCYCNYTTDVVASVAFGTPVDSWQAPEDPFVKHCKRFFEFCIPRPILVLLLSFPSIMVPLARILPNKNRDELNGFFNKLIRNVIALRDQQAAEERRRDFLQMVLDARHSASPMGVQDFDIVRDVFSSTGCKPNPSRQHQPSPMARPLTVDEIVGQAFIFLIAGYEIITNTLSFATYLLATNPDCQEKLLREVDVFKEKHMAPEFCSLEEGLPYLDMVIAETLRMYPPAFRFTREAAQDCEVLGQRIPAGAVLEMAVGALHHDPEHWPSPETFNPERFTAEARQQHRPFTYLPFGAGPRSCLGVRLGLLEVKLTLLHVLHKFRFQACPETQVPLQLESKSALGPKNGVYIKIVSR

[7] = biological target: T2, C-X-C chemokine receptor type 1 (Homo sapiens, UniProt P25024); note: in other assays of this panel Not Active means under 50% inhibition at 10 µM
T2 sequence (P25024 whole entry): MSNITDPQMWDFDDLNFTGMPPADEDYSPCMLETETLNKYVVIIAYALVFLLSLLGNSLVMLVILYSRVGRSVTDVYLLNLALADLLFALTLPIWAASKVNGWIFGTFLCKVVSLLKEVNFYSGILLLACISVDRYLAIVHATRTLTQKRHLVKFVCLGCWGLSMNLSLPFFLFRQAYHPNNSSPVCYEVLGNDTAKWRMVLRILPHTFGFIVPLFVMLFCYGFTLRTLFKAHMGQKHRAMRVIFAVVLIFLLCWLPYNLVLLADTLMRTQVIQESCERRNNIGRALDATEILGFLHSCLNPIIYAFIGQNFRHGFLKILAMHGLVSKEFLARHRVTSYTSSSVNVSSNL

D(3) dopamine receptor = D(3) dopamine receptor (Homo sapiens, UniProt P35462); assay: DRUGMATRIX: Dopamine D3 radioligand binding (ligand: [3H] Spiperone); type: cell membranes, CHO, Membrane; details: cho
D(3) dopamine receptor, sequence (P35462 whole entry): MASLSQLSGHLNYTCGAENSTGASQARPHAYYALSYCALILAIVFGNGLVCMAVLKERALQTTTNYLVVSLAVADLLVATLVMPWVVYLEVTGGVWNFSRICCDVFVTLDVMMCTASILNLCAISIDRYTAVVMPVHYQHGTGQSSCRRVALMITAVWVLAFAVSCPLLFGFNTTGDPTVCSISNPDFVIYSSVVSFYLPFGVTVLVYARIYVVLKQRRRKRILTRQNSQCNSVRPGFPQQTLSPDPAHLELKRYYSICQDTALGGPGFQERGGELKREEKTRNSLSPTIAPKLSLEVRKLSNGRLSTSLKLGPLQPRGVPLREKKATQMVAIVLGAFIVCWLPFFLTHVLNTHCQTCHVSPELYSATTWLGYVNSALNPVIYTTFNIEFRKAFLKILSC

D(4) dopamine receptor = biological target: T3, D(4) dopamine receptor (Homo sapiens, UniProt P21917); assay: DRUGMATRIX: Dopamine D4.2 radioligand binding (ligand: [3H] Spiperone); type: cell membranes, CHO-K1, Membrane; details: cho-k1; Not Active = under 50% inhibition at 10 µM
T3 sequence (P21917 whole entry): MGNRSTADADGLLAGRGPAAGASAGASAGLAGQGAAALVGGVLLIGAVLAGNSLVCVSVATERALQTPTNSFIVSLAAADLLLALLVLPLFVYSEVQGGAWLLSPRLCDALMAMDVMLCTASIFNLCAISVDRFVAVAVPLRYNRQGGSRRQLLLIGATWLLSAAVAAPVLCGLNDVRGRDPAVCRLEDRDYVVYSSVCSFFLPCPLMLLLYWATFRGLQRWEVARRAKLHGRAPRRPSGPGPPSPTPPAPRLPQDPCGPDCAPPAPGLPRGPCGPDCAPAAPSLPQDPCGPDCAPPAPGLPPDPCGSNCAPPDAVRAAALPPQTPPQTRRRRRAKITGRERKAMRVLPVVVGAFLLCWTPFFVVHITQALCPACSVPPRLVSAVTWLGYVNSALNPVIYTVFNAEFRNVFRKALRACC

[8] = DRUGMATRIX: GABAA, Chloride Channel, TBOB radioligand binding (ligand: [3H] TBOB); type: cell membranes, Rattus norvegicus, Wistar, Cerebral cortex, Membrane; details: Not Active = under 50% inhibition at 10 µM
[9] = DRUGMATRIX: Glutamate, AMPA radioligand binding (ligand: [3H] AMPA); type: cell membranes, Rattus norvegicus, Wistar, Cerebral cortex, Membrane; details: Not Active = under 50% inhibition at 10 µM
[10] = DRUGMATRIX: Glutamate, Kainate radioligand binding (ligand: [3H] Kainic acid); type: cell membranes, Rattus norvegicus, Wistar, Brain, Membrane; details: Not Active = under 50% inhibition at 10 µM
Glycine receptor = Glycine receptor (Rattus norvegicus, UniProt P22771+P24524+P07727+P20781); type: cell membranes, Wistar, Spinal cord, Membrane; note: in other assays of this panel Not Active means under 50% inhibition at 10 µM
Histamine H2 receptor = Histamine H2 receptor (Homo sapiens, UniProt P25021); type: cell membranes, CHO-K1, Membrane; details: cho-k1; note: in other assays of this panel Not Active means under 50% inhibition at 10 µM
Histamine H2 receptor, sequence (P25021 whole entry): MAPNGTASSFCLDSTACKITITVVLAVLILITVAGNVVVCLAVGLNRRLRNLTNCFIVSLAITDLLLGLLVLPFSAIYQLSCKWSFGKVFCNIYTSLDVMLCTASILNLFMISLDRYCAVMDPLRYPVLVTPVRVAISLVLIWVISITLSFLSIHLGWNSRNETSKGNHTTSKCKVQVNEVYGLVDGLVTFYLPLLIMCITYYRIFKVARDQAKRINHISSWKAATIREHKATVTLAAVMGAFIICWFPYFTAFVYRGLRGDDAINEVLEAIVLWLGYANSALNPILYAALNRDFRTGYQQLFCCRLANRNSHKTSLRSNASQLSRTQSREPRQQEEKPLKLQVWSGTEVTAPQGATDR

[11] = DRUGMATRIX: Imidazoline I2, Central radioligand binding (ligand: [3H] Idazoxan); type: cell membranes, Rattus norvegicus, Wistar, Cerebral cortex, Membrane; details: Not Active = under 50% inhibition at 10 µM
[12] = DRUGMATRIX: Platelet-Derived Growth Factor (PDGF) radioligand binding (ligand: [125I] PDGF); type: cell-based; details: nih3t3; Not Active = under 50% inhibition at 10 µM

CC1(C)S[C@@H]2[C@H](NC(=O)[C@H](N)c3ccc(O)cc3)C(=O)N2[C@H]1C(=O)O [AMOXICILLIN]
Not Active: IC50 [1] | Ki [1] | IC50 [2] | IC50 [3] | IC50 [4] | Ki [4] | IC50 [5] | IC50 [6] | IC50 (Thromboxane-A synthase) | IC50 [7] | IC50 (D(3) dopamine receptor) | IC50 (D(4) dopamine receptor) | IC50 [8] | Ki [8] | IC50 [9] | Ki [9] | IC50 [10] | Ki [10] | IC50 (Glycine receptor) | IC50 (Histamine H2 receptor) | IC50 [11] | Ki [11] | IC50 [12] | Ki [12]

CCOC(=O)OC(C)OC1=C(C(=O)Nc2ccccn2)N(C)S(=O)(=O)c2ccccc21 (configuration not stated) [AMPIROXICAM]
Not Active: IC50 [1] | Ki [1] | IC50 [2] | IC50 [3] | IC50 [4] | Ki [4] | IC50 [5] | IC50 [6] | IC50 (Thromboxane-A synthase) | IC50 [7] | IC50 (D(3) dopamine receptor) | IC50 (D(4) dopamine receptor) | IC50 [8] | Ki [8] | IC50 [9] | Ki [9] | IC50 [10] | Ki [10] | IC50 (Glycine receptor) | IC50 (Histamine H2 receptor) | IC50 [11] | Ki [11] | IC50 [12] | Ki [12]

N#C[C@H](O[C@@H]1O[C@H](CO[C@@H]2O[C@H](CO)[C@@H](O)[C@H](O)[C@H]2O)[C@@H](O)[C@H](O)[C@H]1O)c1ccccc1 [AMYGDALIN]
Not Active: IC50 [1] | Ki [1] | IC50 [2] | IC50 [3] | IC50 [4] | Ki [4] | IC50 [5] | IC50 [6] | IC50 (Thromboxane-A synthase) | IC50 [7] | IC50 (D(3) dopamine receptor) | IC50 (D(4) dopamine receptor) | IC50 [8] | Ki [8] | IC50 [9] | Ki [9] | IC50 [10] | Ki [10] | IC50 (Glycine receptor) | IC50 (Histamine H2 receptor) | IC50 [11] | Ki [11] | IC50 [12] | Ki [12]
